Measurements published in the NIST ThermoML archive (doi:10.1016/j.fluid.2018.04.016).
± gives the expanded uncertainty stated by the source.

Experiment: refractive index (Na D-line) (dimensionless)
Details: 293.15 K; 101.33 kPa; Liquid; Standard Abbe refractometry

refractive index	SMILES
1.3779 ± 0.002	CC(=O)OC(C)C [1-methylethyl ethanoate]
1.5441 ± 0.002	COc1ccccc1O [2-methoxyphenol]
1.4262 ± 0.0023	CC(=O)CO [acetol]
1.3293 ± 0.002	CO [methanol]
1.3644 ± 0.002	CCC=O [propanal]

SMILES	refractive index
O=Cc1ccco1 [2-furaldehyde]	1.5264 ± 0.002
Cc1ccccc1 [toluene]	1.4969 ± 0.002

Same assay, conditions: 314.15 K; 101.33 kPa; Liquid; Standard Abbe refractometry

refractive index	SMILES
1.5405 ± 0.002	Oc1ccccc1 [phenol]
